Measurements published in paper PMC7915026, “Sulfaguanidine Hybrid with Some New Pyridine-2-One Derivatives: Design, Synthesis, and Antimicrobial Activity against Multidrug-Resistant Bacteria as Dual DNA Gyrase and DHFR Inhibitors” (Antibiotics, 2021).
Values after ≈ are worked out from the molar mass of the structure shown. Read-outs that look alike come from different tables or passages of the source.

Legend:
[1] = test system: P. aeruginosa ATCC BAA-2111; assay: Inhibition zone against multidrug-resistant bacteria; assay type: cell-based; conditions: MDRB P. aeruginosa ATCC BAA-2111
From the text: (§1) Norfloxacin was used as a positive control for the multidrug resistance study.
(§2) The antimicrobial activity performed at the bacteriology laboratory, Botany and Microbiology Department, Faculty of Science, Al-Azhar University, Cairo, Egypt. The inhibition zone (IZ) of the tested derivatives expressed as the diameter (mm) according to the agar plate diffusion method.

[2] = test system: S. aureus ATCC 43300; assay: as above; assay type: cell-based; conditions: MDRB S. aureus ATCC 43300
From the text: as §1, §2

[3] = test system: S. aureus ATCC 33591; assay: as above; assay type: cell-based; conditions: MDRB S. aureus ATCC 33591
From the text: as §1, §2

[4] = test system: E. coli ATCC BAA-196; assay: as above; assay type: cell-based; conditions: MDRB E. coli ATCC BAA-196
From the text: as §1, §2

[5] = test system: E. faecalis ATCC 29212; assay: MIC and MBC determination; assay type: cell-based; conditions: E. faecalis
[6] = test system: P. aeruginosa ATCC 27853; assay: MIC and MBC determination; assay type: cell-based; conditions: Pseudomonas aeruginosa, ATCC27853, P. aeruginosa
[7] = test system: MDRB strains; assay: MIC and MBC, ranges over the MDRB panel; assay type: cell-based; conditions: four MDRB strains
From the text: as §1
(§3) The experiment was repeating for three-times.

[8] = test system: Salmonella typhi (S. typhi ATCC 6539); assay: microbe, parasite or virus in culture; assay type: cell-based; conditions: Salmonella enterica, Salmonella typhi
[9] = test system: B. subtilis ATCC 6633; assay: MIC and MBC determination; assay type: cell-based; conditions: B. subtilis
[10] = test system: C. albicans (ATCC 10231); assay: Inhibition zone, paper disk/agar diffusion; assay type: cell-based; conditions: Na = no activity
From the text: as §2

[11] = test system: S. typhi ATCC 6539; assay: Inhibition zone, paper disk/agar diffusion; assay type: cell-based; conditions: S. typhi; Na = no activity
From the text: as §2

[12] = test system: B. subtilis ATCC 6633; assay: Inhibition zone, paper disk/agar diffusion; assay type: cell-based; conditions: B. subtilis; Na = no activity
From the text: as §2

[13] = test system: P. aeruginosa ATCC 27853; assay: Inhibition zone, paper disk/agar diffusion; assay type: cell-based; conditions: P. aeruginosa; Na = no activity
From the text: as §2

[14] = test system: E. coli ATCC 25922; assay: Inhibition zone, paper disk/agar diffusion; assay type: cell-based; conditions: E. coli; Na = no activity
From the text: as §2

[15] = test system: S. aureus ATCC 29213; assay: Inhibition zone, paper disk/agar diffusion; assay type: cell-based; conditions: S. aureus; Na = no activity
From the text: as §2

[16] = test system: E. faecalis ATCC 29212; assay: Inhibition zone, paper disk/agar diffusion; assay type: cell-based; conditions: E. faecalis; Na = no activity
From the text: as §2

[17] = test system: F. oxysporum (RCMB 008002); assay: Inhibition zone, paper disk/agar diffusion; assay type: cell-based; conditions: Na = no activity
From the text: as §2

[18] = test system: C. albicans (ATCC 10231); assay: MIC and MFC determination; assay type: cell-based
[19] = test system: S. aureus ATCC 29213; assay: MIC and MBC determination; assay type: cell-based; conditions: S. aureus
[20] = target: E. coli DHFR (dihydrofolate reductase) (Escherichia coli, UniProt P0ABQ4); assay: In vitro DHFR enzymatic assay; assay type: biochemical
[21] = target: S. aureus DNA gyrase (Staphylococcus aureus, UniProt P0A0K8+P20831); assay: In vitro DNA gyrase supercoiling enzymatic assay; assay type: biochemical
[22] = test system: F. oxysporum (RCMB 008002); assay: MIC and MFC determination; assay type: cell-based
[23] = test system: E. coli ATCC 25922; assay: MIC and MBC determination; assay type: cell-based; conditions: E. coli
[24] = test system: P. aeruginosa ATCC BAA-2111; assay: MIC and MBC against multidrug-resistant strains; assay type: cell-based; conditions: P. aeruginosa ATCC BAA-2111
From the text: as §1, §3

[25] = test system: S. aureus ATCC 43300; assay: MIC and MBC against multidrug-resistant strains; assay type: cell-based; conditions: Staphylococcus aureus, ATCC43300, S. aureus ATCC 43300
From the text: as §1, §3

[26] = test system: S. aureus ATCC 33591; assay: MIC and MBC against multidrug-resistant strains; assay type: cell-based; conditions: Staphylococcus aureus, ATCC33591, S. aureus ATCC 33591
From the text: as §1, §3

[27] = test system: E. coli ATCC BAA-196; assay: MIC and MBC against multidrug-resistant strains; assay type: cell-based; conditions: Escherichia coli, ATCCBAA196, E. coli ATCC BAA-196
From the text: as §1, §3

E. coli DHFR (dihydrofolate reductase), sequence (P0ABQ4 whole entry): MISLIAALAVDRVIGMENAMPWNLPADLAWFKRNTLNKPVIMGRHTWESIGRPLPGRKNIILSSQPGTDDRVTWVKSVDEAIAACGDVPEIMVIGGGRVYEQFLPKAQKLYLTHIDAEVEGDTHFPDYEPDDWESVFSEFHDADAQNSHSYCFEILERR
S. aureus DNA gyrase, sequence (P20831 whole entry): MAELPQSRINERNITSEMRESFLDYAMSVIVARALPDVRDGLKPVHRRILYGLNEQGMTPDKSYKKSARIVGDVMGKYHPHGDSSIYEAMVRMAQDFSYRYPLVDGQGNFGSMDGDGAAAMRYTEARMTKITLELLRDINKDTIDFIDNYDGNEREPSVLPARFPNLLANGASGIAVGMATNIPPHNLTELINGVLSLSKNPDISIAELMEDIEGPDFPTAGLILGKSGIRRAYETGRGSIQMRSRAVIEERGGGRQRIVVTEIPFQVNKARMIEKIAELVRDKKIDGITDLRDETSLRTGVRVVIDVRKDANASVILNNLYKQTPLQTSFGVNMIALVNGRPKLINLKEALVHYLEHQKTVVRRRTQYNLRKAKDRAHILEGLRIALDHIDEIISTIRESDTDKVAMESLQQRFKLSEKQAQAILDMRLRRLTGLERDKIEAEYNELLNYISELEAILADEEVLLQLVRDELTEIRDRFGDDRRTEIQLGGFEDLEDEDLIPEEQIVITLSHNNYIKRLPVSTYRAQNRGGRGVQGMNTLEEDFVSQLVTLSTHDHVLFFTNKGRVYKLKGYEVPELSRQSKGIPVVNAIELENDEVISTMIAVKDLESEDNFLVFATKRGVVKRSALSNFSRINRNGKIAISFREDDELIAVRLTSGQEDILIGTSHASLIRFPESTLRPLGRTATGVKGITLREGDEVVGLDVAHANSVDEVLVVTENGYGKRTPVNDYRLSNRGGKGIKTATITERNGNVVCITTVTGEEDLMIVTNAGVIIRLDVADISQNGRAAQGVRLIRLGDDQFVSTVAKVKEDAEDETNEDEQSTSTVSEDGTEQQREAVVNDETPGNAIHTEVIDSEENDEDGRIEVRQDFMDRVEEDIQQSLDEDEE
S. aureus DNA gyrase, sequence (P0A0K8 whole entry): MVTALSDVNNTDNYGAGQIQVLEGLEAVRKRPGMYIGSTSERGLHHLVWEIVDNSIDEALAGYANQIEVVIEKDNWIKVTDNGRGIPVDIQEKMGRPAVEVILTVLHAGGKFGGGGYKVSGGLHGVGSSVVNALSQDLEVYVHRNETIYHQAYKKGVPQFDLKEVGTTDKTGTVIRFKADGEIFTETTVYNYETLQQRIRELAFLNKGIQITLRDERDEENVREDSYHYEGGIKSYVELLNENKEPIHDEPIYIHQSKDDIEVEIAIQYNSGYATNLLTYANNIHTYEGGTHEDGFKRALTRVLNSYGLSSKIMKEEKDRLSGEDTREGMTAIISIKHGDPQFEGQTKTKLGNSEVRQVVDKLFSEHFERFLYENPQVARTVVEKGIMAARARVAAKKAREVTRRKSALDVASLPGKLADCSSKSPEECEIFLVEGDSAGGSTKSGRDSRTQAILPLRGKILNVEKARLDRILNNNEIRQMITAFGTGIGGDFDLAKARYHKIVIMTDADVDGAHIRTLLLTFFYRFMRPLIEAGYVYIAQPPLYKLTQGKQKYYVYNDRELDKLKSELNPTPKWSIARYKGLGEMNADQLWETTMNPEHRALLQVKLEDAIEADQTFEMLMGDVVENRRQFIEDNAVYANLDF

N#Cc1c(-c2ccc(Cl)cc2)c(C#N)c(=O)n(-c2ccc(S(=O)(=O)NC(=N)N)cc2)c1N [Compound 3a, 4-(6-Amino-4-(4-chlorophenyl)-3,5-dicyano-2-oxopyridin-1(2H)-yl)-N-carbamimidoylbenzenesulfonamide]
Mean Diameter of Inhibition Zone [1]: 24 ± 0.22 mm | Mean Diameter of Inhibition Zone [2]: 25 ± 0.4 mm | Mean Diameter of Inhibition Zone [3]: 23 ± 0.47 mm | Mean Diameter of Inhibition Zone [4]: 22 ± 0.23 mm | MBC [5]: 15.83 ± 0.47 µM (≈ 7.41 µg/mL) | MIC [5]: 8.33 ± 0.36 µM (≈ 3.9 µg/mL) | MBC ([5]; Enterococcus faecalis, ATCC29212, read-out: MBC): 15.8 µM (≈ 7.41 µg/mL) | MIC ([5]; Enterococcus faecalis, ATCC29212, read-out: MIC): 8.33 µM (≈ 3.9 µg/mL) | MBC ([6]; read-out: MBC): 66.8 ± 0.87 µM (≈ 31.2 µg/mL) | MIC ([6]; read-out: MIC): 33.4 ± 0.35 µM (≈ 15.6 µg/mL) | MBC range [7]: 14.23 to 33.38 µM | MIC range [7]: 8.33 to 16.69 µM | MBC ([8]; read-out: MBC): 22.6 ± 0.32 µM (≈ 10.6 µg/mL) | MIC ([8]; read-out: MIC): 11.9 ± 0.62 µM (≈ 5.57 µg/mL) | MBC [9]: 19.6 ± 0.65 µM (≈ 9.17 µg/mL) | MIC [9]: 9.61 ± 1.65 µM (≈ 4.5 µg/mL) | MBC ([9]; Bacillus subtilis, ATCC6633, read-out: MBC): 19.6 µM (≈ 9.17 µg/mL) | MIC ([9]; Bacillus subtilis, ATCC6633, read-out: MIC): 9.61 µM (≈ 4.5 µg/mL) | Mean Diameter of the Inhibition Zone [10]: 22 ± 0.35 mm | Mean Diameter of the Inhibition Zone [11]: 18 ± 0.16 mm | Mean Diameter of the Inhibition Zone [12]: 31 ± 0.40 mm | Mean Diameter of the Inhibition Zone [13]: 20 ± 0.15 mm | Mean Diameter of the Inhibition Zone [14]: 24 ± 0.20 mm | Mean Diameter of the Inhibition Zone [15]: 25 ± 0.31 mm | Mean Diameter of the Inhibition Zone [16]: 21 ± 0.11 mm | Mean Diameter of the Inhibition Zone [17]: 21 ± 0.30 mm | MFC [18]: 26.69 ± 0.54 µM (≈ 12.5 µg/mL) | MFC/MIC [18]: <2 | MIC [18]: 16.69 ± 0.75 µM (≈ 7.81 µg/mL) | MFC ([18]; Candida albicans, ATCC10231, read-out: MFC): 26.7 µM (≈ 12.5 µg/mL) | MIC ([18]; Candida albicans, ATCC10231, read-out: MIC): 16.7 µM (≈ 7.81 µg/mL) | MBC [19]: 33.38 ± 0.65 µM (≈ 15.6 µg/mL) | MIC [19]: 16.69 ± 0.87 µM (≈ 7.81 µg/mL) | MBC ([19]; Staphylococcus aureus, ATCC29213, read-out: MBC): 33.4 µM (≈ 15.6 µg/mL) | MIC ([19]; Staphylococcus aureus, ATCC29213, read-out: MIC): 16.7 µM (≈ 7.81 µg/mL) | IC50 [20]: 5.44 ± 0.95 µM | fold relative to trimethoprim ([20]; E. coli DHFR IC50): 0.94 fold | IC50 [21]: 22 ± 1.35 µM | fold potency relative to ciprofloxacin ([21]; S. aureus DNA gyrase IC50): ~1.19 fold | MFC [22]: 56.74 ± 0.98 µM (≈ 26.5 µg/mL) | MFC/MIC [22]: <2 | MIC [22]: 33.38 ± 0.74 µM (≈ 15.6 µg/mL) | MFC ([22]; Fusarium oxysporum, RCMB008002, read-out: MFC): 56.7 µM (≈ 26.5 µg/mL) | MIC ([22]; Fusarium oxysporum, RCMB008002, read-out: MIC): 33.4 µM (≈ 15.6 µg/mL) | MBC [23]: 30.02 ± 0.52 µM (≈ 14 µg/mL) | MIC [23]: 16.69 ± 0.84 µM (≈ 7.81 µg/mL) | MBC ([23]; Escherichia coli, ATCC25922, read-out: MBC): 30 µM (≈ 14 µg/mL) | MIC ([23]; Escherichia coli, ATCC25922, read-out: MIC): 16.7 µM (≈ 7.81 µg/mL) | MBC [24]: 14.23 ± 0.65 µM (≈ 6.66 µg/mL) | MIC [24]: 9.48 ± 0.54 µM (≈ 4.44 µg/mL) | MBC ([24]; Pseudomonas aeruginosa, ATCCBAA2111, read-out: MBC): 14.2 µM (≈ 6.66 µg/mL) | MIC ([24]; Pseudomonas aeruginosa, ATCCBAA2111, read-out: MIC): 9.48 µM (≈ 4.44 µg/mL) | MBC ([25]; read-out: MBC): 16.3 ± 0.36 µM (≈ 7.61 µg/mL) | MIC ([25]; read-out: MIC): 8.33 ± 0.29 µM (≈ 3.9 µg/mL) | MBC ([26]; read-out: MBC): 23.7 ± 0.28 µM (≈ 11.1 µg/mL) | MIC ([26]; read-out: MIC): 11.8 ± 0.24 µM (≈ 5.54 µg/mL) | MBC ([27]; read-out: MBC): 33.4 ± 0.84 µM (≈ 15.6 µg/mL) | MIC ([27]; read-out: MIC): 16.7 ± 0.41 µM (≈ 7.81 µg/mL)
